These results are taken from publication PMC3970981 (Nature chemical biology, 2013).

For assay [1], the target named is BioA (7,8-diaminopelargonic acid synthase) (Escherichia coli, UniProt P12995). The assay is described as follows: recombinant BioA activity, bioA auxotroph feeding assay at […]. It is filed as biochemical.
Assay [2] has as its system E. coli MG1655. Nature of the assay: microbe, parasite or virus in culture. To be noted: Escherichia coli, MG1655, 16 h, read-out: MIC (μg/ml) ^a / −bio.

Structures are written as SMILES. In brackets after ≈: the same amount, converted by molar mass.

Sequence of BioA (7,8-diaminopelargonic acid synthase) (P12995 whole entry): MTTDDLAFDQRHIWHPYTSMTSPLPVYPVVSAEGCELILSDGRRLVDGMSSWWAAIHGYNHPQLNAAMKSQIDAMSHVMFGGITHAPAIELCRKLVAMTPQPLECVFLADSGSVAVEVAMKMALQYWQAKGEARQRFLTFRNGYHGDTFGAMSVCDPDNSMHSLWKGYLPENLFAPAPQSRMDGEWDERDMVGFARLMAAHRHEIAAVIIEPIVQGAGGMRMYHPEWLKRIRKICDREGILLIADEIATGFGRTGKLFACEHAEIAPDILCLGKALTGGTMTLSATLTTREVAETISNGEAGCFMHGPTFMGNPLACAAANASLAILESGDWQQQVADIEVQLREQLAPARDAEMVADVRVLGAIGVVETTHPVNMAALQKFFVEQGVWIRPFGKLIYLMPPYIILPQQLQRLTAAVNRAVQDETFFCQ

`NNC(=O)CSc1cccc([N+](=O)[O-])c1` [compound 5]: the “% Inhibition ^b / 10 μM / 100” value in assay [1] was determined as 84.

In the case of `NNC(=O)CSc1ccc([N+](=O)[O-])cc1` [compound 6], the “% Inhibition ^b / 1 μM / 100” value in assay [1] worked out at 66.

In the case of `CCCC(=O)NN` [compound 21], in assay [2], the MIC was over 256 µg/mL.

Take `CC(=O)NN` [compound 23]: the MIC in assay [2] was 128 µg/mL (≈ 1730 µM).
